Measurements reported in BindingDB's records for doi:10.1021/jm701519h (Cns Biological Research, 2008).

Biological target: Cannabinoid receptor 2 (Homo sapiens, UniProt P34972)
Sequence (P34972 whole entry): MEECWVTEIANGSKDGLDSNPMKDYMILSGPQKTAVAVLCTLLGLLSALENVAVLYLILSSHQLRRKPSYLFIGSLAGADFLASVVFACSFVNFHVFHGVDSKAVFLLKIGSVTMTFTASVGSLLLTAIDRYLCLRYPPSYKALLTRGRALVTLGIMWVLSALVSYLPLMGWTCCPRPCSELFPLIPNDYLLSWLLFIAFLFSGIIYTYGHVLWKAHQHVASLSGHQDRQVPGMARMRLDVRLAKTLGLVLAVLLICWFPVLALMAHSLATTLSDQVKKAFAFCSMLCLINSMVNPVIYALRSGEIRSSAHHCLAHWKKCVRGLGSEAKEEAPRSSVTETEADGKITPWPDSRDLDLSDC

Ki: 1.82 µM
SMILES: O=C1C(CCC(O)c2ccc(F)cc2)C(c2ccc(O)cc2)N1c1ccc(F)cc1 (stereo unspecified) [CAS_44450418]
